Measurements: patent US9346761B2, “Arginine methyltransferase inhibitors and uses thereof” (Epizyme, Inc., priority 2013, dated 2016)
Counter-ions that a name gives are not always drawn.

biological target: T1, Human CARM1 (PRMT4) (Homo sapiens, UniProt Q86X55); assay: CARM1 biochemical assay (3H-SAM Flashplate, peptide substrate)
T1 construct: Flag-CARM1-His was eluted with 200 ug/ml FLAG peptide in buffer A; made in house; host or cells: HEK 293F cells (BacMam virus, pFastBacMam)
T1 sequence (Q86X55 with tags, fused parts or gaps isoform Q86X55-1): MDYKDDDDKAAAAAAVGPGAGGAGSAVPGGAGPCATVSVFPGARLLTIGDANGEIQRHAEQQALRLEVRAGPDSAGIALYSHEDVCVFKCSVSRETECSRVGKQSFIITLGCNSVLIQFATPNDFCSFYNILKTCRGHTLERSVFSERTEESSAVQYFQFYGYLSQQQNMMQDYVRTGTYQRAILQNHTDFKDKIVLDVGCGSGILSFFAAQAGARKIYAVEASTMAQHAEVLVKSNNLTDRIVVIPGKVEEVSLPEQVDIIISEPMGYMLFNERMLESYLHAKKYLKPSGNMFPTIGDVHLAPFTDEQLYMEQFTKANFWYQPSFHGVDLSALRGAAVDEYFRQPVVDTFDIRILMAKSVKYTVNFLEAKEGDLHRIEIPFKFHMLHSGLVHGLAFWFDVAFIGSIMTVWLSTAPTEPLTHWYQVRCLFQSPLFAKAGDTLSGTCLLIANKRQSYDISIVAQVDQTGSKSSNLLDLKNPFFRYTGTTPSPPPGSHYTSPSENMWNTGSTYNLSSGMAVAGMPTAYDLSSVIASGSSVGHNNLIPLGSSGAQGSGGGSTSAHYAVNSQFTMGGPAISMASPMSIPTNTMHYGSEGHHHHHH
Source text: General Materials. S-adenosylmethionine (SAM), S-adenosylhomocysteine (SAH), bicine, Tween20, dimethylsulfoxide (DMSO), bovine skin gelatin (BSG), sodium butyrate and Tris(2-carboxyethyl)phosphine hydrochloride solution (TCEP) were purchased from Sigma-Aldrich at the highest level of purity possible. ^3H-SAM was purchase from American Radiolabeled Chemicals with a specific activity of 80 Ci/mmol. 384-well streptavidin Flashplates were purchased from PerkinElmer.
Substrates. Peptide representative of human histone H3 residues 16-30 was synthesized with an N-terminal linker-affinity tag motif and a C-terminal amide cap by 21st Century Biochemicals.
Protein Expression. Recombinant baculovirus were generated according to Bac-to-Bac kit instructions (Life Technologies). […] Infections were carried out at 37° C. for 48 hours, harvested by centrifugation, and stored at −80° C. for purification.
Protein Purification. […] Column was washed with 500 mM NaCl in buffer A and Flag-CARM1-His was eluted with 200 ug/ml FLAG peptide in buffer A. Pooled fractions were dialyzed in 20 mM Tris, 150 mM NaCl, 5% glycerol and 1 mM DTT, pH 7.8.
General Procedure for CARM1 Enzyme Assays on Peptide Substrates. The assays were all performed in a buffer consisting of 20 mM Bicine (pH=7.6), 1 mM TCEP, 0.005% BSG, and 0.002% Tween 20, prepared on the day of use. […] DMSO (1 ul) was added to Columns 11, 12, 23, 24, rows A-H for the maximum signal control and 1 ul of SAH, a known product and inhibitor of CARM1, was added to columns 11, 12, 23, 24, rows I-P for the minimum signal control. A cocktail (40 ul) containing the CARM1 enzyme was added by Multidrop Combi (Thermo-Fisher). The compounds were allowed to incubate with CARM1 for 30 min at room temperature, then a cocktail (10 ul) containing ^3H-SAM and peptide was added to initiate the reaction (final volume=51 ul). […] The assays were stopped by the addition of non-radiolabeled SAM (10 ul) to a final concentration of 300 uM, which dilutes the ^3H-SAM to a level where its incorporation into the peptide substrate is no longer detectable. 50 ul of the reaction in the 384-well polypropylene plate was then transferred to a 384-well Flashplate and the biotinylated peptides were allowed to bind to the streptavidin surface for at least 1 hour before being washed once with 0.1% Tween20 in a Biotek ELx405 plate washer. The plates were then read in a PerkinElmer TopCount plate reader to measure the quantity of ^3H-labeled peptide bound to the Flashplate surface, measured as disintegrations per minute (dpm) or alternatively, referred to as counts per minute (cpm).
Where dpm=disintegrations per minute, cmpd=signal in assay well, and min and max are the respective minimum and maximum signal controls.
Where top and bottom are the normally allowed to float, but may be fixed at 100 or 0 respectively in a 3-parameter fit. The Hill Coefficient normally allowed to float but may also be fixed at 1 in a 3-parameter fit. Y is the % inhibition and X is the compound concentration.

Row | Compound | IC50
1 | CNCCN(C)Cc1cn(C2CCC2)nc1-c1ccc(OC(C)C)cc1 [Compound 254, N1-((1-cyclobutyl-3-(4-isopropoxyphenyl)-1H-pyrazol-4-yl)methyl)-N1,N2-dimethylethane-1,2-diamine hydrochloride] | 0.101 to 1 µM
2 | C=CC(=O)Nc1cccc(-c2[nH]ncc2CN(C)CCNC)c1 [Compound 258] | 1.01 to 3 µM
3 | CNCCN(C)Cc1cn(CC(=O)OC)nc1-c1ccc(OC(C)C)cc1 [Compound 248] | 3.01 to 10 µM
4 | CCNC(=O)c1cccc(-c2n[nH]cc2CN(C)CCNC)c1 [Compound 43] | 3.01 to 10 µM
5 | CNCCN(C)Cc1cn(CCOC)nc1-c1ccc(OC(C)C)cc1 [Compound 253, N1-((3-(4-isopropoxyphenyl)-1-(2-methoxyethyl)-1H-pyrazol-4-yl)methyl)-N1,N2-dimethylethane-1,2-diamine hydrochloride] | 1.01 to 3 µM
6 | CNCCN(C)Cc1cn[nH]c1-c1ccc(C#N)cc1 [Compound 17] | 1.01 to 3 µM
7 | CNCCN(C)Cc1cn[nH]c1-c1cc(F)cc(F)c1 [Compound 18] | 0.101 to 1 µM
8 | CNCCN(C)Cc1cn(C(C)C)nc1-c1ccc(F)cc1 [Compound 15] | 3.01 to 10 µM
9 | CNCCN(C)Cc1cn(C2CC2)nc1-c1ccc(F)cc1 [Compound 13] | 1.01 to 3 µM
10 | CNCCN(C)Cc1c[nH]nc1-c1cccc(C#N)c1 [Compound 22] | 1.01 to 3 µM
11 | CNCCN(C)Cc1c[nH]nc1-c1ccc(CO)cc1 [Compound 28] | 0.101 to 1 µM
12 | CNCCN(C)Cc1cn(C2CCCC2)nc1-c1ccc(OC(C)C)cc1 [Compound 214] | 0.101 to 1 µM
13 | CNCCN(C)Cc1cn(CC(=O)O)nc1-c1ccc(OC(C)C)cc1 [Compound 250] | > 10 µM
14 | CNCCN(C)Cc1c[nH]nc1-c1ccc(O)cc1 [Compound 27] | 1.01 to 3 µM
15 | CNCCN(C)Cc1cn(CCCC(O)CO)nc1-c1ccc(F)cc1 (centres unmarked) [Compound 30] | 3.01 to 10 µM
16 | CNCCN(C)Cc1c[nH]nc1-c1ccccc1C(F)(F)F [Compound 38] | > 10 µM
17 | CNCCN(C)Cc1cnn(C(C)C)c1-c1ccc(F)cc1 [Compound 16] | 3.01 to 10 µM
18 | CNCCN(C)Cc1c[nH]nc1-c1ccc(Oc2ccccc2)cc1 [Compound 37] | < 0.1 µM
19 | CNCCN(C)Cc1cnn(C2CCCC2)c1-c1ccc(OC(C)C)cc1 [Compound 255] | 1.01 to 3 µM
20 | CNCCN(C)Cc1c[nH]nc1-c1cccc(OC)c1 [Compound 24] | 1.01 to 3 µM
21 | CCn1ncc(CN(C)CCNC)c1-c1ccc(OC(C)C)cc1 [Compound 252] | 0.101 to 1 µM
22 | CNCCN(C)Cc1cn(Cc2cccnc2)nc1-c1ccc(OC(C)C)cc1 [Compound 246] | 1.01 to 3 µM

Row | Compound | IC50
23 | CNCCN(C)Cc1cn(C)nc1-c1ccc(OC(C)C)cc1 [Compound 243, N1-((3-(4-isopropoxyphenyl)-1-methyl-1H-pyrazol-4-yl)methyl)-N1,N2-dimethylethane-1,2-diamine] | 0.101 to 1 µM
24 | CNCCN(C)Cc1cn(Cc2ccccc2)nc1-c1ccc(OC(C)C)cc1 [Compound 217] | 0.101 to 1 µM
25 | CNCCN(C)Cc1c[nH]nc1-c1ccc(OC)cc1 [Compound 25] | 1.01 to 3 µM
26 | CNCCN(C)Cc1c[nH]nc1-c1cccc([N+](=O)[O-])c1 [Compound 21] | 1.01 to 3 µM
27 | CNCCN(C)Cc1cn(CC(N)=O)nc1-c1ccc(OC(C)C)cc1 [Compound 251] | 1.01 to 3 µM
28 | CNCCN(C)Cc1cn(C2CCCCC2)nc1-c1ccc(OC(C)C)cc1 [Compound 256] | 0.101 to 1 µM
29 | CNCCN(C)Cc1cn(C2CCOC2)nc1-c1ccc(OC(C)C)cc1 (centres unmarked) [Compound 215] | 0.101 to 1 µM
30 | CNCCN(C)Cc1cnn(CC(=O)OC)c1-c1ccc(OC(C)C)cc1 [Compound 249] | 3.01 to 10 µM
31 | CNCCN(C)Cc1c[nH]nc1-c1ccccc1OC [Compound 23] | 1.01 to 3 µM
32 | CNCCN(C)Cc1c[nH]nc1-c1ccc(C)cc1C [Compound 29] | 3.01 to 10 µM
33 | CNCCN(C)Cc1cn(Cc2ccccn2)nc1-c1ccc(OC(C)C)cc1 [Compound 247] | 1.01 to 3 µM
34 | C=CCn1ncc(CN(C)CCNC)c1-c1ccc(OC(C)C)cc1 [Compound 219] | 0.101 to 1 µM
35 | CNCCN(C)Cc1cnn(CCCC(O)CO)c1-c1ccc(F)cc1 (centres unmarked) [Compound 31] | 1.01 to 3 µM
36 | CNCCN(C)Cc1cnn(C2CC2)c1-c1ccc(F)cc1 [Compound 14] | 0.101 to 1 µM
37 | CNCCN(C)Cc1cnn(C2CCOC2)c1-c1ccc(OC(C)C)cc1 (centres unmarked) [Compound 216] | 0.101 to 1 µM
38 | CCn1cc(CN(C)CCNC)c(-c2ccc(OC(C)C)cc2)n1 [Compound 213] | 0.101 to 1 µM
39 | C=C(C)C(=O)Nc1cccc(-c2[nH]ncc2CN(C)CCNC)c1 [Compound 257] | > 10 µM
40 | CNCCN(C)Cc1c[nH]nc1-c1cccc(O)c1 [Compound 26] | 1.01 to 3 µM
41 | CNCCN(C)Cc1c[nH]nc1-c1ccc(N)cc1 [Compound 33] | 1.01 to 3 µM
42 | CCCc1ccc(-c2n[nH]cc2CN(C)CCNC)cc1 [Compound 20] | 0.101 to 1 µM
43 | C=CCn1cc(CN(C)CCNC)c(-c2ccc(OC(C)C)cc2)n1 [Compound 218] | 0.101 to 1 µM
44 | CNCCN(C)Cc1c[nH]nc1-c1ccccc1OC(F)(F)F [Compound 40] | > 10 µM
